Patent publication US8088731B2, “Use of GLP-1 compound for treatment of critically ill patients” (Novo Nordisk A/S, priority 2002, dated 2012)

How the values were obtained:
[1] = test system: subjects with type 2 diabetes; test: 12 week randomised, double-blind, dose-response, placebo controlled and open label glimepiride study of glucose lowering effect; assay type: in vivo, human; conditions: 12 weeks
Protocol: The dose of glimepiride was adjusted during the first 4 weeks based on glycaemic control with a treatment target of fasting serum glucose <7 mM, with a dose not exceeding 4 mg/day. Results

[2] = test system: subjects with type 2 diabetes; test: Graded glucose infusion crossover study of beta cell sensitivity to glucose after a single dose; assay type: in vivo, human; conditions: single dose 7.5 μg/kg
Protocol: Using a graded glucose infusion protocol with plasma glucose levels matched over the range of 5 to 12 mmol/L beta cell sensitivity was assessed. Insulin secretion rates (ISR) were estimated by deconvolution of circulating C-peptide concentrations. Findings were compared to responses of 10 healthy, nondiabetic volunteers to the same glucose infusion protocol.

subjects that reported any hypoglycaemic episode ([1]; glimepiride group)	subjects that reported any hypoglycaemic episode ([1]; two highest dose groups (0.60 and 0.75 mg))	hypoglycemic events ([2]; type 2 diabetes subjects)	Structure (SMILES)	reduction compared to placebo on FSG ([1]; glimepiride p.o. once daily, open-label, titrated, not exceeding 4 mg/day)	reduction compared to placebo on HbA1c ([1]; glimepiride p.o. once daily, open-label, titrated, not exceeding 4 mg/day, p=0.0001)	mean serum fasting glucose decrease compared with placebo ([1]; 0.60 mg once daily s.c., p<0.0001)	mean decrease compared to placebo in HbA1c ([1]; 0.60 mg once daily s.c., p=0.0002)	mean decrease compared to placebo in HbA1c ([1]; 0.75 mg once daily s.c., p<0.0001)	mean serum fasting glucose decrease compared with placebo ([1]; 0.75 mg once daily s.c., p=0.0003)	C-peptide levels compared to placebo ([2]; type 2 diabetes subjects)	insulin levels compared to placebo ([2]; type 2 diabetes subjects)	slope of ISR vs. plasma glucose ([2]; type 2 diabetes subjects, graded glucose infusion, p<0.014 vs placebo)	insulin secretion at low glucose levels ([2]; versus non-diabetic controls)
31%	–	–	CCC1=C(C)CN(C(=O)NCCc2ccc(S(=O)(=O)NC(=O)N[C@H]3CC[C@H](C)CC3)cc2)C1=O [glimepiride, reference compound]	-2.6 mM	0.74%	–	–	–	–	–	–	–	–
–	7%	No hypoglycemic events occurred	CCCCCCCCCCCCCCCC(=O)N[C@@H](CCC(=O)NCCCC[C@H](NC(=O)[C@H](C)NC(=O)[C@H](C)NC(=O)[C@H](CCC(N)=O)NC(=O)CNC(=O)[C@H](CCC(=O)O)NC(=O)[C@H](CC(C)C)NC(=O)[C@H](Cc1ccc(O)cc1)NC(=O)[C@H](CO)NC(=O)[C@H](CO)NC(=O)[C@@H](NC(=O)[C@H](CC(=O)O)NC(=O)[C@H](CO)NC(=O)[C@@H](NC(=O)[C@H](Cc1ccccc1)NC(=O)[C@@H](NC(=O)CNC(=O)[C@H](CCC(=O)O)NC(=O)[C@H](C)NC(=O)[C@@H](N)Cc1cnc[nH]1)[C@@H](C)O)[C@@H](C)O)C(C)C)C(=O)N[C@@H](CCC(=O)O)C(=O)N[C@@H](Cc1ccccc1)C(=O)N[C@H](C(=O)N[C@@H](C)C(=O)N[C@@H](Cc1c[nH]c2ccccc12)C(=O)N[C@@H](CC(C)C)C(=O)N[C@H](C(=O)N[C@@H](CCCNC(=N)N)C(=O)NCC(=O)N[C@@H](CCCNC(=N)N)C(=O)NCC(=O)O)C(C)C)[C@@H](C)CC)C(=O)O [NN2211, Arg^34, Lys^26(N^ε-(γ-Glu(N^α-hexadecanoyl)))-GLP-1(7-37)]	–	–	2.14 mmol/L	0.70 percentage points	0.75 percentage points	1.82 mmol/L	increased	increased	1.26±0.36 pmol*L/(min*mmol*kg)	comparable to the non-diabetic controls
